For 15 molecules, GI50 and TGI results are on record in PubChem BioAssay (NCI).

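Exposure lasted 48 hours, with cells grown in 96-well plates and compounds tested at five concentrations. GI50: concentration for 50% inhibition of growth. TGI: concentration producing complete growth inhibition.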

Common to all, as to assay: DTP human tumour cell line panel, 48 h
The subject of assay [1] is A549 NSCLC.
Assay [2] concerns CAKI-1 renal.
Assay [3] has as its system DU-145 prostate.
Assay [4] relates to HCT-116 colon.
The subject of assay [5] is HOP-92 NSCLC.
For assay [6], the system named is MDA-MB-231 breast.
Assay [7] concerns MDA-MB-435.
The subject of assay [8] is NCI-H460 lung.
Assay [9] has as its system OVCAR-3 ovarian.
The test system of assay [10] is SNB-19 CNS.

`NS(=O)(=O)c1cccc(N=Cc2c(O)[nH]c3ccccc23)c1`: the GI50 was over 25 µM in assay [1]; 13.9 µM in assay [2]; over 25 µM in [3]; over 25 µM in [4]; over 25 µM in assay [5]; over 25 µM in assay [6]. For the same molecule, the GI50 in assay [7], in assay [8], in [9] and in assay [10] was over 25 µM throughout. The TGI in assay [1], in assay [2], in assay [3], in assay [4], in [5] and in assay [6] was over 25 µM each time. Besides, the TGI in assay [7], in assay [8], in [9] and in assay [10] was over 25 µM each time.
For the molecule `O=C(Nc1ccc(Cl)cc1)c1cc(-c2ccc(Cl)cc2)c2sc(=O)[nH]c2n1`, the GI50 is 2.49 µM in assay [1]; 1.95 µM in assay [2]; 3.31 µM in [3]; 2.4 µM in assay [4]; 0.526 µM in assay [5]; 1.66 µM in [6]. Further, the GI50 in [7] was 2.7 µM; in assay [8], 2.19 µM; in [9] it was 2.32 µM; in assay [10] it was 3.64 µM. In addition, the TGI worked out at 12.7 µM in assay [1]; 13.1 µM in [2]; 26.5 µM in [3]; 10.8 µM in [4]; 3.94 µM in assay [5]; 3.56 µM in [6]. In addition, the TGI is 11.2 µM in [7], 12.6 µM in [8], 7.45 µM in assay [9] and over 100 µM in assay [10].
As to `Cc1ccc2c(c1)NC(=O)CC(c1ccccc1)=N2`, the TGI in [1] is over 100 µM; in assay [2], over 100 µM; in assay [3] it was over 100 µM; in [4] it was over 100 µM; in assay [5], over 100 µM; in assay [6] it was 79.9 µM. Further, the TGI in assay [7], in [8], in [9] and in assay [10] was over 100 µM in each case.
Consider `COc1cccc2c1C(=O)c1c(O)c3c(c(O)c1C2=O)C[C@@](O)(C(=O)CO)C[C@@H]3OC1C[C@H](N)[C@H](O)[C@H](C)O1` (stereo partly specified), for which the GI50 in assay [1] is 0.0355 µM; in [3], 0.0684 µM; in assay [4] it was 0.036 µM; in [5] it was 0.0236 µM; in [6] it was 0.144 µM; in [7], 0.109 µM. In addition, the GI50 is 0.005 µM in assay [8], 0.167 µM in assay [9] and 0.0246 µM in [10]. The TGI in assay [1] is over 50 µM; in assay [2], 4.18 µM; in assay [4], 0.212 µM; in assay [5], 0.233 µM; in assay [6] it was 5.41 µM; in [7], 0.574 µM. Moreover, the figures for the TGI in assay [8] and in assay [10] were over 50 µM and 6.33 µM, respectively.
Regarding `Cc1cc(C)c(O)c(CN(C)Cc2cc(Cl)cc(Cl)c2O)c1`, the GI50 in [1] is 5.41 µM; in assay [2] it was 2.77 µM; in assay [3], 6.37 µM; in assay [4], 3.23 µM; in assay [5] it was 3.07 µM; in [6] it was 2.97 µM. Also, the GI50 in assay [7] is 6.16 µM; in assay [8], 3.49 µM; in assay [9], 2.4 µM; in assay [10] it was 4.82 µM. The TGI was determined as 28.5 µM in [1]; 12.2 µM in [2]; 20.8 µM in assay [3]; 10.8 µM in [4]; 13.3 µM in [5]; 12.8 µM in assay [6]. For the same molecule, the TGI worked out at 30.2 µM in assay [7], 13.7 µM in [8], 8.16 µM in assay [9] and 20.8 µM in assay [10].
Regarding `N#CCc1ncc(-c2ccc(C(F)(F)F)cc2)c(NC2CCCCCC2)n1`, the GI50 in [1], in [2], in [3], in [4], in assay [5] and in assay [6] was over 10 µM in each case. The GI50 in assay [7], in assay [8], in [9] and in [10] was over 10 µM each time. The TGI in assay [1], in [2], in [3], in [4], in [5] and in [6] was over 10 µM throughout. Besides, the TGI in assay [7], in [8], in assay [9] and in assay [10] was over 10 µM throughout.
Take `O=C(c1ccco1)c1c(C(F)(F)F)n([O-])c2ccccc2[n+]1=O`: the GI50 in assay [1] was 3.18 µM; in assay [2] it was 1.13 µM; in assay [3], 0.367 µM; in assay [4] it was 0.434 µM; in [5] it was 0.144 µM; in assay [6] it was 0.772 µM. For the same molecule, the GI50 in assay [7] is 1.85 µM; in assay [8] it was 0.245 µM; in assay [9], 0.735 µM; in [10], 3.34 µM. For the same molecule, the TGI is 27.7 µM in assay [1]; 3.94 µM in [2]; 0.969 µM in assay [3]; 8.52 µM in assay [4]; 0.986 µM in assay [5]; 3.6 µM in assay [6]. Further, the TGI in assay [7] turned out to be 17.5 µM; in assay [8] it was 1.15 µM; in assay [9], 3.88 µM; in assay [10], 22.3 µM.
In the case of `COc1ccccc1/C=N\N=C(N/N=C/c1ccccc1OC)N/N=C/c1ccccc1OC`, the GI50 in assay [1] was 3.6 µM; in [2] it was 2.08 µM; in assay [3] it was 3.92 µM; in [4], 3.04 µM; in assay [5], 1.92 µM; in assay [6], 3.2 µM. The GI50 in assay [7] was 2.36 µM; in [8], 2.74 µM; in [9], 2.55 µM; in assay [10], 3.37 µM. The TGI in assay [1] is over 100 µM; in [2] it was 6.19 µM; in assay [3] it was over 100 µM; in assay [4] it was 11.3 µM; in assay [5], 5.34 µM; in [6] it was 9.11 µM. The TGI in [7] was 6.49 µM; in assay [8] it was 10.8 µM; in assay [9], 13.1 µM; in assay [10], over 100 µM.
For `C=CC(=O)N[C@H]1CCOC[C@H]1Nc1ncc2cc(-c3c(Cl)c(OC)cc(OC)c3Cl)ccc2n1`, the GI50 in assay [1] is 30.5 µM; in assay [2], 12.5 µM; in assay [3] it was 24.4 µM; in [4], 12.7 µM; in [5], 5.38 µM; in [6], 17.7 µM. Further, the GI50 in assay [7] is 15.3 µM; in [8] it was 13.8 µM; in [9], 20.3 µM; in [10] it was 26.5 µM. The TGI is over 100 µM in assay [1]; over 100 µM in [2]; over 100 µM in assay [3]; 57.2 µM in assay [4]; 51.3 µM in assay [5]; over 100 µM in assay [6]. The TGI in [7] was 65.8 µM; in assay [8], over 100 µM; in assay [9], over 100 µM; in assay [10], over 100 µM.
As for `c1cn2cc(-c3ccc4cn[nH]c4c3)nc(Nc3ccc(N4CCOCC4)cc3)c2n1`, the GI50 in assay [1] was 10.4 µM; in assay [2] it was 8.4 µM; in assay [3], 11.4 µM; in assay [4] it was 10.1 µM; in assay [5], 15.6 µM; in assay [6], 12.6 µM. The GI50 in [7] was 12.8 µM; in [8] it was 7.59 µM; in assay [9], 18.4 µM; in assay [10], 11.2 µM. The TGI came to 28.8 µM in [1]; 44.3 µM in assay [2]; 23.5 µM in assay [3]; 23.3 µM in [4]; 33.8 µM in [5]; 26.7 µM in [6]. Also, the total growth inhibition concentration (TGI) was over 100 µM in assay [7], 25.4 µM in [8], 40.2 µM in assay [9] and 30.8 µM in [10].
With `CCOC(=O)/C=C/C(C(=O)/C=C/c1ccc(O)c(OC)c1)=C(O)\C=C\c1ccc(O)c(OC)c1`, the GI50 in [1] was 4.84 µM; in [2], 4.5 µM; in assay [3], 4.43 µM; in [4], 1.31 µM; in assay [5], 10.5 µM; in [6] it was 2 µM. The GI50 was 3.29 µM in assay [7], 20 µM in assay [8], 3.39 µM in assay [9] and 5.14 µM in [10]. For the same molecule, the TGI in assay [1] stood at 24.5 µM; in assay [2], 17.5 µM; in assay [3] it was 18.7 µM; in assay [4] it was 3.24 µM; in assay [5] it was 30.1 µM; in assay [6], 8.55 µM. Further, the TGI in assay [7] was determined as 9.31 µM; in assay [8], 54.4 µM; in assay [9], 12.3 µM; in assay [10], 27.2 µM.
With `CC(=O)OC1CC2(O)C3CCC4CC(O)CCC4(C)C3CCC2(C)C1C1=CC(=O)OC1` (stereo unspecified), the total growth inhibition concentration (TGI) in assay [1] was 0.0323 µM; in [2], 0.13 µM; in assay [3] it was 0.11 µM; in assay [4], 0.186 µM; in [5], 19.3 µM; in [6], 6.61 µM. In addition, the TGI was determined as 0.357 µM in [7], 0.124 µM in assay [8], 0.172 µM in assay [9] and 1.25 µM in assay [10].
As to `COc1ccc2nc3cc(Cl)ccc3c(NCCCNCCC(C)O)c2c1` (stereo unspecified), the GI50 in assay [1] was 0.422 µM; in assay [2] it was 0.735 µM; in assay [3], 0.302 µM; in assay [4] it was 0.0569 µM; in assay [5] it was 0.535 µM; in [6], 0.203 µM. Besides, the GI50 in [7] was 0.504 µM; in assay [8], 0.178 µM; in [9] it was 0.368 µM; in [10], 0.423 µM. Moreover, the TGI in assay [1] was found to be 2.12 µM; in assay [2] it was 3.43 µM; in assay [3], 1.24 µM; in [4], 1.54 µM; in assay [5] it was 2.76 µM; in assay [6], 1.37 µM. The TGI in [7] was 1.79 µM; in assay [8], 0.561 µM; in [9], 1.68 µM; in assay [10], 2.69 µM.
As to `C=C1C(=O)O[C@H]2[C@H]1CC/C(COC(=O)NCCc1c[nH]c3ccc(OC)cc13)=C\CC[C@@]1(C)O[C@@H]21`, the GI50 in assay [1] was 4.58 µM; in assay [2] it was 1.49 µM; in assay [3] it was 1.61 µM; in [4] it was 1.46 µM; in assay [5], 1.19 µM; in assay [6] it was 1.97 µM. Moreover, the GI50 in assay [7] was 1.8 µM; in assay [8], 6.49 µM; in assay [9] it was 1.44 µM; in assay [10], 10 µM. The TGI in assay [1] stood at 18.4 µM; in [2], 3.32 µM; in assay [3], 4.43 µM; in assay [4], 3.11 µM; in assay [5] it was 2.87 µM; in [6], 4.44 µM. The TGI stood at 4.06 µM in assay [7], 25.2 µM in [8], 3.92 µM in assay [9] and 21.9 µM in [10].
In the case of `CO[C@@H]1CC(=O)C2(CC(=O)O[C@@H]2/C=C(\C)CCC=C(C)C)C[C@@H]1O` (stereo partly specified), the GI50 was 1.65 µM in assay [1]; 0.87 µM in assay [2]; 0.577 µM in [3]; 0.489 µM in [4]; 0.84 µM in assay [5]; 0.642 µM in assay [6]. For the same molecule, the GI50 in assay [7] was 0.803 µM; in [8] it was 0.744 µM; in [9], 0.839 µM; in assay [10], 1.23 µM. In addition, the TGI in assay [1] was over 12.2 µM; in assay [2], 2.74 µM; in assay [3], 1.55 µM; in assay [4] it was 1.14 µM; in [5] it was 2.97 µM; in assay [6], 1.66 µM. The TGI was 3.59 µM in assay [7], 2.28 µM in assay [9] and 4.11 µM in assay [10].

As a reminder, the GI50 is the concentration that inhibits growth by half. What is called TGI is the concentration at which net growth stops. Read a low TGI as greater sensitivity of the cells.
